Experimental data taken from patent US8163699B2, “Method for the treatment of valvular disease” (Montreal Heart Institute, priority 2006, dated 2012).
“And” between values parts separate entries of the source, which are not always exact repeats. Identical values can stand only once.

Key:
Assay type in all cases: in vivo, New-Zealand White rabbits
[1] = Serum lipids and calcemia in rabbit model of aortic valve stenosis; settings: for HDL-cholesterol / total cholesterol levels: treated group
Experimental: (§1) The animals then returned to a standard diet (without vitamin D2) to mimic cholesterol lowering and were randomly assigned to receive either saline (control group, n=8) or the ApoA-1 mimetic peptide (treated group, n=7). Rabbits were given injections through the marginal ear vein of saline or of the ApoA-1 mimetic peptide (25 mg/kg) complexed with phospholipids (Compound A), 3 times per week for 2 weeks. Echocardiograms were performed serially (see Echocardiography Methods) every 3 to 4 days throughout the randomized treatment period. Two days after their last infusion, the animals underwent a final echocardiogram and were sacrificed, and the aortic valves were harvested for histological analyses. Blood samples were obtained through the ear artery at baseline, prior to treatment and before sacrifice. Total cholesterol, HDL cholesterol, triglycerides and calcium levels were measured with an automated filter photometer system (Dimension RxL Max, Dade Behring, Ill.).
Data are presented as mean±standard deviation. For the “pre-treatment” period, repeated measures analysis of variance (ANOVA) models were used to study the echocardiographic and serum measurements across time and between groups (treated vs. control groups). Models with time, group and group×time interaction as independent variables were used and comparisons between groups at a given time point were undertaken only in the presence of a significant group×time interaction. Otherwise, global conclusions were drawn based on the main group effects of the model. For the randomized treatment period, repeated measures analysis of covariance (ANCOVA) models were used to study the echocardiographic and serum measurements across time and between groups (treated vs. control groups), adjusted for the baseline value of the response variable. The group×time interaction was also included in the ANCOVA models and comparisons between groups at a given time point were undertaken only in the presence of a significant group×time interaction. Otherwise, global conclusions were drawn based on the main group effects of the model. Histological variables were compared between treated and control groups using Student t-test. Relationships between histomorphometry and echocardiographic variables were evaluated using Pearson correlation coefficient. All analyses were performed with SAS release 8.2 (SAS Institute Inc., Cary, N.C.) and conducted at the 0.05 significance level.

aortic valve lesions [2] = assay: Histomorphometry of aortic valves in rabbit model of aortic valve stenosis; settings: treated group; post mortem after 2 weeks of treatment
Excerpt: An animal model adapted from that described by Drolet et al. (12) was used. Fifteen male New-Zealand White rabbits (2.7-3.0 kg, aged 12-13 weeks) were fed with a 0.5% cholesterol-enriched diet (Harlan, Indianapolis, Ind.) plus vitamin D2 (50000 UI per day; Sigma, Markham, Canada) in the drinking water until significant AVS, as defined by a decrease ≧10% of aortic valve area (AVA) or of the transvalvular velocities ratio (V1/V2), could be detected by echocardiography (12.9±2.4 weeks). The animals then returned to a standard diet (without vitamin D2) to mimic cholesterol lowering and were randomly assigned to receive either saline (control group, n=8) or the ApoA-1 mimetic peptide (treated group, n=7). Rabbits were given injections through the marginal ear vein of saline or of the ApoA-1 mimetic peptide (25 mg/kg) complexed with phospholipids (Compound A), 3 times per week for 2 weeks. Echocardiograms were performed serially (see Echocardiography Methods) every 3 to 4 days throughout the randomized treatment period. Two days after their last infusion, the animals underwent a final echocardiogram and were sacrificed, and the aortic valves were harvested for histological analyses. Blood samples were obtained through the ear artery at baseline, prior to treatment and before sacrifice. Total cholesterol, HDL cholesterol, triglycerides and calcium levels were measured with an automated filter photometer system (Dimension RxL Max, Dade Behring, Ill.). The ascending aorta and aortic valve were opened longitudinally and the 3 valvular cusps were separated. […] Stained or immunohistochemically labeled tissue sections obtained from the central third of each cusp were analyzed with a computer-based digitizing image system (Image Pro Plus, version 5.1) using a light microscope (BX41, Olympus) connected to a digital video camera (Qcolor3, Olympus). […] Lesion area (LA) and leaflet lesion length (LLL) were measured. […] Relationships between histomorphometry and echocardiographic variables were evaluated using Pearson correlation coefficient. […]

[3] = tested on: aortic valve stenosis (AVS); assay: Echocardiography (aortic valve area, aortic valve thickness) in rabbit model of aortic valve stenosis; settings: for Aortic valve area (AVA): 25 mg/kg i.v. 3 times per week; for Aortic valve thickness: treated rabbits
Excerpt: A complex animal model of aortic valve stenosis has been developed in rabbits.
An animal model adapted from that described by Drolet et al. (12) was used. Fifteen male New-Zealand White rabbits (2.7-3.0 kg, aged 12-13 weeks) were fed with a 0.5% cholesterol-enriched diet (Harlan, Indianapolis, Ind.) plus vitamin D2 (50000 UI per day; Sigma, Markham, Canada) in the drinking water until significant AVS, as defined by a decrease ≧10% of aortic valve area (AVA) or of the transvalvular velocities ratio (V1/V2), could be detected by echocardiography (12.9±2.4 weeks).
as §1
Transthoracic echocardiographic studies were performed at baseline, on a weekly basis starting at 8 weeks of hypercholesterolemic diet until significant AVS developed, and then after 4, 7, 10 and 14 days of ApoA-1 mimetic peptide or saline control treatments. Studies were carried out with an S12 probe using a standard echocardiographic system (Sonos 5500, Philips Medical Imaging, MA). Intra-muscular injections of ketamine (45 mg/kg) and midazolam (0.75 mg/kg) were used for sedation.
Parasternal long and short-axis views of the aortic valve were recorded to assess leaflet morphology. Left ventricular outflow tract (LVOT) diameter was measured in a zoomed parasternal long-axis view, and LVOT cross-sectional area (CSALVOT) was calculated according to: CSALVOT=π(DLVOT/2)^2. LVOT velocity (V1) and velocity time integral (VTILVOT) were obtained with pulsed-wave Doppler sampled proximal to the aortic valve in the apical 5-chamber view. Continuous wave (CW) Doppler interrogation across the aortic valve was used to obtain transvalvular maximal velocity (V2) and VTI (VTIAO) in the same view. V1/V2 ratio was calculated in the pre-treatment period to determine AVS development. Aortic valve area (AVA) was obtained at each time point by the continuity equation: AVA=CSALVOT×(VTILVOT/[…]). Aortic valve thickness in its middle portion was measured at end-diastole in a zoomed parasternal long-axis view at baseline, before randomized therapy, and at the final echocardiographic exam.
The average of three consecutive cardiac cycles was used for each measurement. Special care was taken to obtain similar imaging planes on serial examinations by reviewing previous recordings before follow-up study. All echocardiographic imaging and measurements were performed throughout the protocol by the same experienced investigator blinded to randomized treatment assignment.
Data are presented as mean±standard deviation. For the “pre-treatment” period, repeated measures analysis of variance (ANOVA) models were used to study the echocardiographic and serum measurements across time and between groups (treated vs. control groups). Models with time, group and group×time interaction as independent variables were used and comparisons between groups at a given time point were undertaken only in the presence of a significant group×time interaction. Otherwise, global conclusions were drawn based on the main group effects of the model. […]

aortic valve lesions [4] = assay: Histochemistry of aortic valves (von Kossa, filipin, Sirius red, immunohistochemistry) in rabbit model of aortic valve stenosis
Excerpt: An animal model adapted from that described by Drolet et al. (12) was used. Fifteen male New-Zealand White rabbits (2.7-3.0 kg, aged 12-13 weeks) were fed with a 0.5% cholesterol-enriched diet (Harlan, Indianapolis, Ind.) plus vitamin D2 (50000 UI per day; Sigma, Markham, Canada) in the drinking water until significant AVS, as defined by a decrease ≧10% of aortic valve area (AVA) or of the transvalvular velocities ratio (V1/V2), could be detected by echocardiography (12.9±2.4 weeks). The animals then returned to a standard diet (without vitamin D2) to mimic cholesterol lowering and were randomly assigned to receive either saline (control group, n=8) or the ApoA-1 mimetic peptide (treated group, n=7). Rabbits were given injections through the marginal ear vein of saline or of the ApoA-1 mimetic peptide (25 mg/kg) complexed with phospholipids (Compound A), 3 times per week for 2 weeks. Echocardiograms were performed serially (see Echocardiography Methods) every 3 to 4 days throughout the randomized treatment period. Two days after their last infusion, the animals underwent a final echocardiogram and were sacrificed, and the aortic valves were harvested for histological analyses. Blood samples were obtained through the ear artery at baseline, prior to treatment and before sacrifice. Total cholesterol, HDL cholesterol, triglycerides and calcium levels were measured with an automated filter photometer system (Dimension RxL Max, Dade Behring, Ill.). Hematoxylin-phloxin-safran, von Kossa and Sirius red (F3B, BDH, UK) stained sections were prepared for routine examination, tissue calcification and collagen studies respectively. Collagen fibers types I and III were quantified as previously described (13), on Sirius red picric acid stained sections under polarized light. For immunohistochemistry evaluation, all sections were preincubated with either mouse IgG2a monoclonal antibody against rabbit macrophage (RAM11, Dako, Canada) (1:100 dilution) or rabbit smooth muscle cell α-actin (Clone 1A4, Dako, Canada) (1:200 dilution). Species-appropriate biotinylated secondary antibodies were applied, followed by streptavidin horseradish peroxidase complex, visualized with azoethylcarbazol (AEC) and counterstained by Mayer's hematoxylin. Smooth muscle cells, macrophages and calcification areas were quantified in the ROA on digital images acquired at 40× magnification. Images from each section were digitally captured with the same illumination settings, and automatic computer-based analysis was performed with the same color threshold for all specimens. Data were expressed as percent labelled area in ROA. For assessment of tissue free cholesterol, 5 μm cryosections fixed in 4% paraformaldehyde in PBS (pH 7.4) were stained with filipin (13). Sections were incubated for 1 hour at room temperature in filipin complex (Sigma, Canada) dissolved in DMSO and diluted in PBS, mounted in Vectashield (Vector Laboratories, USA) and viewed by fluorescence microscopy using a Zeiss Axiovert 200M microscope with the DAPI filter set. Images were acquired with an AxioCam MRm digital camera mounted with a 0.63× C-mount adapter. Filipin data were expressed as arbitrary units of fluorescence intensity. Data are presented as mean±standard deviation. For the “pre-treatment” period, repeated measures analysis of variance (ANOVA) models were used to study the echocardiographic and serum measurements across time and between groups (treated vs. control groups). Models with time, group and group×time interaction as independent variables were used and comparisons between groups at a given time point were undertaken only in the presence of a significant group×time interaction. Otherwise, global conclusions were drawn based on the main group effects of the model. […]

[5] = at the time of randomization (pre-treatment value)
[6] = treated group, after 7 days of treatment
[7] = treated group, after 10 days of treatment
[8] = treated group, after 14 days of treatment
[9] = treated rabbits, Sirius red, polarized light

“H-Pro-Val-Leu-Asp-Leu-Phe-Arg-Glu-Leu-Leu-Asn-Glu-Leu-Leu-Glu-Ala-Leu-Lys-Gln-Lys-Leu-Lys-OH (H-PVLDLFRELLNELLEALKQKLK-OH; not fully specified) [ApoA-1 mimetic peptide, ApoA-1 mimetic peptide complexed with phospholipids, mimicking nascent HDL]” gave an HDL-cholesterol ([1]; at end of treatment) of 0.45 ± 0.17 mmol/L, a total cholesterol levels ([1]; at end of treatment) of 17.57 ± 10.32 mmol/L and an HDL-cholesterol [1, 5] of 0.50 ± 0.15 mmol/L. The total cholesterol levels [1, 5] was 20.13 ± 5.18 mmol/L, the triglyceride levels ([1]; treated vs. control group during treatment period, P=0.544) was “similar” and the “% LLL (percentage of total leaflet length occupied by lesion)” value (aortic valve lesions [2]) was 55.7±24.3%. The “Lesion extent at the base of valve leaflets and sinuses of Valsalva” value (aortic valve lesions [2]) was 52.8±12.5%, the “percentage of lesion area (LA) per region of analysis (ROA)” value (aortic valve lesions [2]) was 52.8±12.5 %/ROA and the “Aortic valve area (AVA)” value [3, 6] was 21.9±3.6 mm^2. For the same substance, the “Aortic valve area (AVA)” value [3, 7] was 23.0±4.1 mm^2, the “Aortic valve area (AVA)” value [3, 8] was 23.8±3.1 mm^2 and the “relative increase of AVA” value [3, 6] was 14.2±3.5% and 14.2%. The “relative increase of AVA” value [3, 7] was 19.8±3.5% and 19.8%, the “relative increase of AVA” value [3, 8] was 24.6±2.0% and 24% and 24.6% and the “decrease of aortic valve thickness” value ([3]; treated group, within 14 days of treatment) was 21%. The Aortic valve thickness ([3]; at end of treatment (14 days)) was 0.075±0.033 cm, the Aortic valve thickness ([3]; before randomization (pre-treatment value)) was 0.094±0.034 cm and the “decrease in free cholesterol compared to controls” value (aortic valve lesions [4]; treated animals vs. controls, first 10 μm at luminal edge of lesions, not statistically significant, P=0.231) was 41%. The “free cholesterol (filipin fluorescent signal)” value (aortic valve lesions [4]; treated animals, within the first 10 μm at the luminal edge of lesions) was 221±54 arbitrary units of fluorescence intensity, the “percentage of rabbits with calcium deposits in the lesion core in the sinuses of Valsalva” value (aortic valve lesions [4]; treated group) was 57% and the “decrease of calcification area compared to controls” value (aortic valve lesions [4]; treated group vs. controls, von Kossa staining, strong trend, P=0.063) was 77%. The “percentage of the sinus of Valsalva area occupied by calcifications” value (aortic valve lesions [4]; treated group, von Kossa staining) was 1.6±2.0%, the “percentage of collagen type I fibers in the ROA” value (aortic valve lesions [4]; [9]) was 5.5±5.6 %/ROA and the “percentage of collagen type III fibers in the ROA” value (aortic valve lesions [4]; [9]) was 19.1±11.3 %/ROA. For the same substance, the macrophage areas (aortic valve lesions [4]; treated vs. control group, RAM11 immunohistochemistry) was “no significant differences between groups” and the α-actin positive areas (aortic valve lesions [4]; treated vs. control group, smooth muscle cell α-actin immunohistochemistry) was “no significant differences between groups”.
